Where “and” joins values, the source holds several entries; their conditions need not be identical. Identical values can stand only once. Entries after “also recorded” stand apart in the source; their conditions may differ.
Tests used:
[1] = target: T1, MGAT1 (Homo sapiens, UniProt P26572); details: read-out: Km for UDP-GlcNAc; cited from earlier work
T1 sequence (P26572 1-445): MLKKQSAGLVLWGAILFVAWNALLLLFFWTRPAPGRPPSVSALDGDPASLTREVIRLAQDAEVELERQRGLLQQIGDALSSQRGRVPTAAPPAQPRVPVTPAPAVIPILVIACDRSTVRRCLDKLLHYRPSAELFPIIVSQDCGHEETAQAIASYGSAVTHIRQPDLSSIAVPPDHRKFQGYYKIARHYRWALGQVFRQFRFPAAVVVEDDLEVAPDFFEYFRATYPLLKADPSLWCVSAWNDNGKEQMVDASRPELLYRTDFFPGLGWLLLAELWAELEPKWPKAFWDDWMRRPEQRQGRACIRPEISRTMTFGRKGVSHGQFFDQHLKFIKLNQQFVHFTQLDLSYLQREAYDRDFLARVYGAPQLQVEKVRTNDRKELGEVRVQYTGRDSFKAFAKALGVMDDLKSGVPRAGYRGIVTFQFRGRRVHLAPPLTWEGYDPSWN

[2] = target: T2, MGAT2 (Homo sapiens, UniProt Q10469); details: read-out: Km for UDP-GlcNAc; cited from earlier work
T2 sequence (Q10469 1-447): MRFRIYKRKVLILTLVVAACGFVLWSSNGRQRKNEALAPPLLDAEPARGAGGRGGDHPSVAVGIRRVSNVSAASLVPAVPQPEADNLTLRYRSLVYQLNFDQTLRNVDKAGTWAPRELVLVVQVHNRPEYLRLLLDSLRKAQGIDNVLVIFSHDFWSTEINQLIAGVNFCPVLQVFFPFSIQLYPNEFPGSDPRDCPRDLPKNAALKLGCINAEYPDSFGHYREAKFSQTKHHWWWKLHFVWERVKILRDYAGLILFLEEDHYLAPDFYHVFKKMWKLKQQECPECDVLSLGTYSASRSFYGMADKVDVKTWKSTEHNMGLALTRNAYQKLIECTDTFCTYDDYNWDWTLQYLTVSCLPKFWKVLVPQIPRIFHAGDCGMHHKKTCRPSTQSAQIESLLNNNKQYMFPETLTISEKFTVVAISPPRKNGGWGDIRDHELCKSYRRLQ

[3] = test system: MGAT4; details: read-out: Km for UDP-GlcNAc; cited from earlier work
[4] = target: T3, MGAT5 enzyme (Homo sapiens, UniProt Q09328); details: read-out: Km for UDP-GlcNAc; cited from earlier work
T3 sequence (Q09328 1-741): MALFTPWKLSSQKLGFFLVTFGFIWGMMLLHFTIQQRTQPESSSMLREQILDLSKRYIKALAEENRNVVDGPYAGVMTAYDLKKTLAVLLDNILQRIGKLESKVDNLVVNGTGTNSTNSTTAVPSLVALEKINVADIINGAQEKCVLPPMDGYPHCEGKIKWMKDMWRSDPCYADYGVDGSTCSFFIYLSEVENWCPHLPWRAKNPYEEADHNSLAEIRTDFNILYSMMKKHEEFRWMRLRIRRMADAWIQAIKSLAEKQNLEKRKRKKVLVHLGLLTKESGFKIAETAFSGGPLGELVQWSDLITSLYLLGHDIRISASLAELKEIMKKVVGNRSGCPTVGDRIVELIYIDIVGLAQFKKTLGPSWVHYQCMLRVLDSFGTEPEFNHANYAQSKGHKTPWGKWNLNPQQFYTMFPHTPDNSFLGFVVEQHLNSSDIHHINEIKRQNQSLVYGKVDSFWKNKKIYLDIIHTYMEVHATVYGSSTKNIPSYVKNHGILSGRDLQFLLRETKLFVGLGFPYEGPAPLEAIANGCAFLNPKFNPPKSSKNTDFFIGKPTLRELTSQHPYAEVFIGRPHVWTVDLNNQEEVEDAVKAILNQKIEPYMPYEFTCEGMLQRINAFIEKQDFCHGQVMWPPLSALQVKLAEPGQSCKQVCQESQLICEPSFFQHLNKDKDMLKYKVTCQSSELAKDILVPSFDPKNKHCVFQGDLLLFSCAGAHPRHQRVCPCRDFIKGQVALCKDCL

[5] = test system: UDP-GlcNAc/UMP transporter; details: UDP-GlcNAc/UMP transport, model parameter; cited from earlier work
[6] = test system: PL/J and C57/B6 T cell cultures; assay: L-PHA staining of mouse CD3+ T cells stimulated with anti-CD3, FACS; assay type: cell-based; details: listed as SW
Procedure: Mice used for L-PHA staining and quantitative RT-PCR were sex and age matched. […] 129/Sv mice were from an original Mgat5 gene targeted population (28). All other mice (SJL, NOD, Balb/c and B10.S) were obtained from Jackson Laboratories. […] Mouse and Jurkat cells were stained with L-PHA and LEA by first blocking with PBA (2% bovine serum albumin/0.01% azide/PBS) for 10 min at 4° C. and then incubated with 4 μg/ml of L-PHA-FITC (Vector Laboratories Inc.) or 20 μg/ml of LEA-FITC (Sigma) in PBA for 40 min at 4° C. and analyzed by a BD FACSCalihur (BD Pharmingen, San Diego, Calif.). The level of lectin binding was normalized by untreated control and calculated as a percentage (Sample intensity/control intensity-1) %.
Mice used for L-PHA staining and quantitative RT-PCR were sex and age matched. […] 129/Sv mice were from the original Mgat5 gene targeted population (28). All other mice (SJL, NOD, Balb/c and B10.S) were obtained from Jackson Laboratories. Mouse cells were stained with anti-CD4 (RM4-5), anti-CD8 (53-6.7), anti-CD45R (RA3-6B2) from eBioscience, and L-PHA (4 μg/ml) and LEA (20 μg/ml) from Sigma. […] The indicated monosaccharides and/or metabolites were added daily except glucose which was added only at time zero. […] The plateau or highest non-toxic dose is shown.

[7] = test system: PL/J and C57/B6 T cell cultures; assay: CFSE proliferation of mouse CD3+ T cells stimulated with anti-CD3; assay type: cell-based; details: wild type PL/J and C57/B6 T cells
[8] = test system: CHO cells; assay: L-PHA and ConA lectin staining of CHO cells by FACS; assay type: cell-based, Chinese Hamster; details: CHO cells treated with inhibitor
Text: (§1) For comparison of N-glycan profiles of mice and human MS patients, CHO cells and CHO cells deficient at 5 different steps in the N-glycan pathway (Glucosidase I, Mannosidase I, MGAT1, Mannosidase II and MGAT5, FIG. 7A) were used to define relative L-PHA and Concanavillin A (ConA) lectin staining levels by FACS along with MALDI TOF N-glycan processing profiles. […] Indeed, a human infant with severe human glucosidase I deficiency accumulates Glc3Man (885 A ion in FIG. 16A, 21C) in the urine, a 4 hexose oligomer which derives from the Glucosidase I substrate Glc3Man9GlcNAc2 via endo-mannosidase activity (70). […] Such activity would produce Man8GlcNAc2, Man7GlcNAc2 and Man6GlcNAc2 structures and allow processing by Mannosidase I/II. Indeed, N-glycans of these 3 compositions accumulate in Glucosidase I/II inhibited cells when Mannosidase I activity is blocked with DMN (69). The larger structures Glc3Man9GlcNAc2 (mass 3008) and Glc3Man7GlcNAc2 (mass 2600) were also observed (67), however they were at lower relative intensities compared to the A ion group (FIG. 21C). […] Mixing CHO and Lec1 cells in various proportions confirmed that relative differences in expression of N-glycan structures can be determined using MALDI TOF (FIG. 21G).

[9] = test system: CHO cells; assay: MALDI-TOF mass spectroscopy N-glycan profile of CHO cells; assay type: cell-based, Chinese Hamster; details: CHO cells treated with inhibitor
Procedure: This was done as a service at the Glycotechnology core facility, a resource of the Glycobiology Research and Training Center (GRTC) at the University of California, San Diego. CD3+ murine T cells (6×10^6), resting PBMCs from human controls and MS subjects (6×10^6) and CHO cells (10×10^6) were lysed with 1% SDS in 100 mM Tris pH 7.4, dialyzed to remove SDS, digested with trypsin to generate glycopeptides and treated with PNGaseF to release the N-glycans. To focus on early processing, N-glycans were desialylated by mild acid digestion prior to permethylation and MALDI-TOF mass spectroscopy. Monoisotopic peaks in the spectra were identified using GlycanMass and GlycoMod online software, with specific targeting of the N-glycan intermediates occurring during Golgi processing.
as §1

Row | Compound | Km [1] | Km [2] | Km [3] | Km [4] | Km [5] | up-regulation of β1,6 GlcNAc branched N-glycans following stimulation ([6]; anti-CD3, minimal concentrations) | resting levels of β1,6 GlcNAc branched N-glycans ([6]; minimal concentrations) | reversal of supplement effect on proliferation by blocking Mgat5 N-glycan expression [7] | high-mannose structures as seen by ConA staining [8] | β1,6GlcNAc-branched N-glycan expression by L-PHA staining [8] | MALDI TOF profile of N-glycans (accumulated structures) [9] | β1,6GlcNAc-branched tetra-antennary N-glycans (mass 2969, structure G) [9]
1 | CC(=O)N[C@H]1[C@@H](OP(=O)(O)OP(=O)(O)OC[C@H]2O[C@@H](n3ccc(=O)[nH]c3=O)[C@H](O)[C@@H]2O)O[C@H](CO)[C@@H](O)[C@@H]1O [UDP-GlcNAc, UDP-N-acetylglucosamine] | 0.04 mM | 0.9 mM | ~5 mM | ~10 mM and ~11 mM and 11 mM | 0.00713 mM |  |  |  |  |  |  | 
2 | O[C@H]1[C@H]2[C@H](O)CCCN2C[C@H]1O [swainsonine] |  |  |  |  |  | significantly attenuated | without affecting; also recorded: do not affect | reversed | increased | dramatic reductions | accumulation of hybrid structures | absent
